Results as given in article PMC6251916, “CKD-506, a novel HDAC6-selective inhibitor, improves renal outcomes and survival in a mouse model of systemic lupus erythematosus” (Scientific Reports, 2018).

What was measured:
HDAC2 = biological target: T1, HDAC2 (Homo sapiens, UniProt Q92769); experiment: HDAC panel assay (enzyme activity); assay type: biochemical
T1 construct: purchased Reaction biology Corp. (Malvern, PA, USA)
Procedure: (§1) HDAC panel assay was performed by Reaction biology Corp. (Malvern, PA, USA) according to their validated protocol. To evaluate the potency and selectivity of CKD-506, HDAC panel assay was carried out by Reaction biology Corp. Briefly, the deacetylation reaction was performed in 50 mM Tris-HCl pH 8.0, 137 mM NaCl, 2.7 mM KCl, 1 mM MgCl2, and 1 mg/ml bovine serum albumin (BSA) with RHK-K(Ac)-AMC as substrate. After the reaction, a fluorescence signal (Ex. 360 nm/Em. 460 nm) developed (~30 min.) by addition of an equal volume of 2 mM nicotinamide, 16 mg/mL trypsin in 50 mM Tris-HCl pH 8.0, 137 mM NaCl, 2.7 mM KCl, and 1 mM MgCl2.

HDAC1 = biological target: T2, HDAC1 (Homo sapiens, UniProt Q13547); experiment: HDAC panel assay (enzyme activity); assay type: biochemical
T2 construct: purchased Reaction biology Corp. (Malvern, PA, USA)
T2 sequence (Q13547 whole entry): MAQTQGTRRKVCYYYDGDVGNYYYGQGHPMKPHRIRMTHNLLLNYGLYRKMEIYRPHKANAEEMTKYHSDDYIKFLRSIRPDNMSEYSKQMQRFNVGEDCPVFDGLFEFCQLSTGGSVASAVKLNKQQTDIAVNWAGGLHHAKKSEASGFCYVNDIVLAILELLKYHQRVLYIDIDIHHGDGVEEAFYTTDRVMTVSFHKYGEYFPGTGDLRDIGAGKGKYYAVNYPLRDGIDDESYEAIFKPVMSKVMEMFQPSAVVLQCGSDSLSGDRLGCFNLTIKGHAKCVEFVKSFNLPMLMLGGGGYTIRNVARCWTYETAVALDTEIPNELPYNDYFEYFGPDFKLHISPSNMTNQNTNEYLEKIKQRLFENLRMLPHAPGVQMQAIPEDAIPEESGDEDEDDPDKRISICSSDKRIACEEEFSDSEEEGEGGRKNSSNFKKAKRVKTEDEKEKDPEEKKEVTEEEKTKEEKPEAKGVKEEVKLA
Procedure: as §1

HDAC8 = biological target: T3, HDAC8 (Homo sapiens, UniProt Q9BY41); experiment: HDAC panel assay (enzyme activity); assay type: biochemical
T3 construct: purchased Reaction biology Corp. (Malvern, PA, USA)
T3 sequence (Q9BY41 1-377): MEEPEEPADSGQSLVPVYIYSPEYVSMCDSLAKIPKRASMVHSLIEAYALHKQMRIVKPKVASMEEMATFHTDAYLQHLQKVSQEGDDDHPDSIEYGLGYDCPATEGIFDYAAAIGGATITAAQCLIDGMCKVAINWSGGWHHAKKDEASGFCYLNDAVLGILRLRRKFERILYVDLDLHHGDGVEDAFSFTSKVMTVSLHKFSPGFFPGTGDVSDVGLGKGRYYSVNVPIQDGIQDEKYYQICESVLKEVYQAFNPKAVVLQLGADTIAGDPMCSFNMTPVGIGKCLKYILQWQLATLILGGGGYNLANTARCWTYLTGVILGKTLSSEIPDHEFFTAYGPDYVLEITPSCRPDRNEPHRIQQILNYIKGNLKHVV
Procedure: as §1

HDAC7 = biological target: T4, HDAC7 (Homo sapiens, UniProt Q8WUI4); experiment: HDAC panel assay (enzyme activity); assay type: biochemical
T4 construct: purchased Reaction biology Corp. (Malvern, PA, USA)
T4 sequence (Q8WUI4 1-952): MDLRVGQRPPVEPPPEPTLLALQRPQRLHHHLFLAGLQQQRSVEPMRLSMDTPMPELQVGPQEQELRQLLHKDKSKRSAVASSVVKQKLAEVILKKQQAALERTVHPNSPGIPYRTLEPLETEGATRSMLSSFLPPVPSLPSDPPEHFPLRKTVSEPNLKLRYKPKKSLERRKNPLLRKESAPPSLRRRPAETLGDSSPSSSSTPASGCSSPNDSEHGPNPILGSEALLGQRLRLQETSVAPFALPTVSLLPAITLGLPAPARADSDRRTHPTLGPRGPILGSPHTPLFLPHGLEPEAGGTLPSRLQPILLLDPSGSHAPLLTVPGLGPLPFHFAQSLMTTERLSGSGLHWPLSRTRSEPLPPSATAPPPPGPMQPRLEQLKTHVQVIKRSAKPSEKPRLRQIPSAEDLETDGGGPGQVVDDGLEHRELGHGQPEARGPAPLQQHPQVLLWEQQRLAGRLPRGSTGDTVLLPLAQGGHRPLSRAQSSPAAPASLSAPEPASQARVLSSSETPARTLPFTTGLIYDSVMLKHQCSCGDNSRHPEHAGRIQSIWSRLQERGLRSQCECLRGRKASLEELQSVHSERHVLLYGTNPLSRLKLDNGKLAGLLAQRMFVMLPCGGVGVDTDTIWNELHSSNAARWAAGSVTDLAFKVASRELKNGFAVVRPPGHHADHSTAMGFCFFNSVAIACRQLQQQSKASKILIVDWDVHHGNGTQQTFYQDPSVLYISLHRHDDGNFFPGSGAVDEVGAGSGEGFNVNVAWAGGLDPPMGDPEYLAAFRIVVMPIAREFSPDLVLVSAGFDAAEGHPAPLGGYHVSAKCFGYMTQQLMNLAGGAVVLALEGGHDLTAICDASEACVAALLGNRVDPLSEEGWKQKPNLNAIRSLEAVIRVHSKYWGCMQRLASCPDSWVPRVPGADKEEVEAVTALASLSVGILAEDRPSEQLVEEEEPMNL
Procedure: as §1

other HDAC isoforms = experiment: HDAC panel assay (enzyme activity); assay type: biochemical
Procedure: as §1

NZB/W F1 female mice [1] = experiment: Murine SLE model: BUN and anti-dsDNA antibody levels; assay type: in vivo, mouse
Procedure: Survival had been monitored until 42 weeks of age.
Blood samples had been collected from mice under isoflurane anesthesia every 4 weeks (at 24, 28, 32, 36, 40 weeks of age and autopsy), and the obtained serum samples had been kept at −70 °C until the analysis.

NZB/W F1 female mice [2] = experiment: Murine SLE model: flow cytometry of splenocytes; assay type: in vivo, mouse
Source text: Single cell suspensions were obtained from the spleens of NZB/W F1 mice at autopsy (at 43–44 weeks of age). The splenocytes were stained with PerCP-Cy5.5-conjugated anti-mouse CD3e (PerCP-cy5.5-CD3e, eBioscience, San Diego, CA, USA), fluorescein isothiocyanate (FITC)-conjugated anti-mouse CD4 (FITC-CD4, BD Biosciences, San Jose, CA, USA), PE-cyanine7-conjugated anti-mouse CD8a (eBioscience), allo-phycocyanin (APC)-conjugated anti-mouse CD25 (BD Biosciences) and PE-conjugated anti-mouse CD138 (BD Biosciences).
T cell profile was analyzed as described previously; briefly, we examined proportions of Th1 cells (CD4^+CD25^+T-bet^+), Th2 cells (CD4^+CD25^+GATA-3^+), Th17 cells (CD4^+CD25^+ROR-γt^+), and Treg cells (CD4^+CD25^+Foxp3^+). To analyze T helper subsets, the splenocytes were stained with antibodies to CD4 and CD25 (FITC-conjugated anti-mouse CD4 and APC-conjugated anti-mouse CD25, BD Biosciences). Cells were fixed and permeabilized prior to staining with T-bet, GATA-3, ROR-γt and Foxp3 antibodies (PE-, BD Biosciences).

T1 sequence (Q92769 whole entry): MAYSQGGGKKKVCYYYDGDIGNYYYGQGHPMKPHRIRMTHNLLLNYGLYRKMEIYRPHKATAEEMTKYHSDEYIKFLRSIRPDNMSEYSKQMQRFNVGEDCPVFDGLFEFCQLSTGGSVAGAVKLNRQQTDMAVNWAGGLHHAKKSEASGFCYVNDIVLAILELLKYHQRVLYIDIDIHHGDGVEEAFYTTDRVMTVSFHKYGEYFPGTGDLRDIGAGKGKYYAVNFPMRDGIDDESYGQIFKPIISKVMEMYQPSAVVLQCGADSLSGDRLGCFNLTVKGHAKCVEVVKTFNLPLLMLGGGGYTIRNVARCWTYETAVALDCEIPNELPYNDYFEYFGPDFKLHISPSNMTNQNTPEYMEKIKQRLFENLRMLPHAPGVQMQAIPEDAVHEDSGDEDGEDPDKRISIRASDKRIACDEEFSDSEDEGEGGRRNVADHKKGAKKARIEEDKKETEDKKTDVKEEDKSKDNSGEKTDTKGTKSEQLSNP

CKD-506
IC50 (HDAC2): 2 to 5 µM | IC50 (HDAC1): 2 to 5 µM | IC50 (HDAC8): 2 to 5 µM | IC50 (HDAC7): 2 to 5 µM | inhibition of enzyme activity of other HDAC isoforms (other HDAC isoforms): does not inhibit | Levels of BUN vs vehicle (NZB/W F1 female mice [1]; group CKD30, 40 weeks of age): significantly lower | Levels of BUN vs vehicle (NZB/W F1 female mice [1]; group CKD30, at autopsy): significantly lower | Levels of BUN vs vehicle (NZB/W F1 female mice [1]; group CKD50, 36 weeks of age): significantly lower | Levels of BUN vs vehicle (NZB/W F1 female mice [1]; group CKD50, 40 weeks of age): significantly lower | Levels of BUN vs vehicle (NZB/W F1 female mice [1]; group CKD50, at autopsy): significantly lower | fewer CD4−CD8− cells compared with group vehicle (NZB/W F1 female mice [2]; group CKD10, spleen): 19.1% | fewer CD138+ cells compared with group vehicle (NZB/W F1 female mice [2]; group CKD10, spleen): 21.2% | fewer CD4−CD8− cells compared with group vehicle (NZB/W F1 female mice [2]; group CKD30, spleen): 28.3% | fewer CD138+ cells compared with group vehicle (NZB/W F1 female mice [2]; group CKD30, spleen): 25.2% | CD4−CD8+ T cells in spleen vs vehicle (NZB/W F1 female mice [2]; group CKD50): significantly more | percentage of CD25+ cells in spleen vs vehicle (NZB/W F1 female mice [2]; group CKD50): significantly lower | T-bet expression by CD4+ cells vs vehicle (NZB/W F1 female mice [2]; group CKD50, spleen): significantly lower | fewer CD4−CD8− cells compared with group vehicle (NZB/W F1 female mice [2]; group CKD50, spleen): 27.3% | fewer CD138+ cells compared with group vehicle (NZB/W F1 female mice [2]; group CKD50, spleen): 31.6%
